According to PMC5146859, “Phase 1/2 study of pacritinib, a next generation JAK2/FLT3 inhibitor, in myelofibrosis or other myeloid malignancies” (Journal of Hematology & Oncology, 2016):
Marks after values point to notes of the source that are not given here.

Key:
patients with MF [1] = test: Phase 2 spleen response (volume by MRI, length by physical examination); assay type: in vivo, human; details: phase 2, 400 mg QD
Experimental: In phase 2, abdominal MRI to assess spleen and liver volume was performed on day 1 of cycles 1, 4, and 7 and then day 1 of every third cycle through cycle 25. Spleen size (length) was also assessed by manual palpation with each scheduled physical examination. The phase 2 study protocol was amended in September 2009 to include the MF Quality of Life and Symptoms Assessment Tool. […] The instrument was administered pre-dose on day 1 of cycles 1, 2, 4, 7, and 10 and then on day 1 of every third cycle through cycle 25.
The primary endpoint of the phase 2 component was the proportion of the efficacy population who achieved a ≥35% reduction in spleen volume from baseline at week 24, as measured by MRI. Spleen response rate was also assessed in terms of a ≥35% reduction in spleen volume by MRI up to week 24 and end of treatment and as a ≥50% reduction in spleen length by physical examination up to week 24 and end of treatment. Duration of response was not analyzed due to limitations in the proportion of responders. An exploratory endpoint was the proportion of patients with a ≥50% reduction in MF Quality of Life and Symptoms Assessment Tool at week 24 compared with baseline.
The planned sample size of 29 patients for the phase 2 component provided 80% power to detect a spleen response rate of ≥30% versus the null hypothesis of a response rate of ≤10%, with α = 0.05 (two-sided). The efficacy-evaluable population included those patients with a baseline and corresponding follow-up value. The safety population included all enrolled patients who received ≥1 dose of pacritinib.

patients with MF [2] = test: Phase 2 hematologic parameters and transfusions; assay type: in vivo, human
Experimental: At screening/baseline, patients underwent a medical history, physical examination, vital sign assessment, ECOG PS assessment, electrocardiogram, and assessment of hematologic parameters and blood chemistry. Hematology/blood chemistry, physical examinations, and vital sign assessments were performed throughout treatment. Toxicity was assessed using the National Cancer Institute Common Terminology Criteria for Adverse Events (NCIC-CTCAE), version 3.0, with relationship to treatment assigned by the investigator and were recorded from the first dose of pacritinib until 30 days after the last dose. Bone marrow biopsy and/or aspirate samples were drawn at baseline, on day 1 of cycle 4 and cycle 10, as clinically indicated, and at the termination visit. Disease response and progression were determined using the relevant International Working Group (IWG) criteria.

[3] = phase 2, during the study, n = 31

## C1=C/COCc2cc(ccc2OCCN2CCCC2)Nc2nccc(n2)-c2cccc(c2)COC/1 [pacritinib, 11-(2-pyrrolidin-1-yl-ethoxy)-14,19-dioxa-5,7,26-triaza-tetracyclo[19.3.1.1(2,6). 1(8,12)]heptacosa-1(25),2(26),3,5,8,10,12(27),16,21,23-decaene]
Patients with MF [1]; at week 24 (4/17)
  Evaluable patients achieving ≥35% spleen volume reduction by MRI (primary endpoint): 23.5%
Patients with MF [1]; at week 24 (9/19)
  Patients achieving ≥50% spleen length reduction by physical examination: 47.4%
Patients with MF [1]; up to end of treatment (7/23)
  Patients achieving ≥35% spleen volume reduction by MRI: 30.4%
Patients with MF [1]; up to end of treatment (12/31)
  Patients achieving ≥50% spleen length reduction by physical examination: 38.7%
Patients with MF [2]; phase 2, 16 transfused patients
  RBC transfusions, median: 11 units
Patients with MF [2]; phase 2, Termination
  Hematocrit, Median % change from baseline: 0.48%
  Hemoglobin, Median % change from baseline: 5.0%
  Leukocytes, Median % change from baseline: 15.49%
  Lymphocytes, Median % change from baseline: 39.87%
  Neutrophils, Median % change from baseline: -9.19%
  Platelets, Median % change from baseline: -5.4%
  Red blood cells, Median % change from baseline: 0.18%
Patients with MF [2]; phase 2, Week 2
  Hematocrit, Median % change from baseline: 2.92%
  Hemoglobin, Median % change from baseline: 5.3%
  Leukocytes, Median % change from baseline: -5.93%
  Lymphocytes, Median % change from baseline: 26.93%
  Neutrophils, Median % change from baseline: -16.44%
  Platelets, Median % change from baseline: -1.6%
  Red blood cells, Median % change from baseline: 2.23%
Patients with MF [2]; phase 2, Week 4
  Hematocrit, Median % change from baseline: 0.00%
  Hemoglobin, Median % change from baseline: 2.2%
  Leukocytes, Median % change from baseline: -26.77%
  Lymphocytes, Median % change from baseline: -6.84%
  Neutrophils, Median % change from baseline: -26.43%
  Platelets, Median % change from baseline: -20.3%
  Red blood cells, Median % change from baseline: 1.41%
Patients with MF [2]; phase 2, Week 6
  Hematocrit, Median % change from baseline: 0.64%
  Hemoglobin, Median % change from baseline: 9.1%
  Leukocytes, Median % change from baseline: -5.58%
  Lymphocytes, Median % change from baseline: 31.7%
  Neutrophils, Median % change from baseline: -9.32%
  Platelets, Median % change from baseline: -3.6%
  Red blood cells, Median % change from baseline: -1.65%
Patients with MF [2]; phase 2, Week 8
  Hematocrit, Median % change from baseline: 2.01%
  Hemoglobin, Median % change from baseline: 4.5%
  Leukocytes, Median % change from baseline: -5.50%
  Lymphocytes, Median % change from baseline: 12.65%
  Neutrophils, Median % change from baseline: -19.76%
  Platelets, Median % change from baseline: -4.5%
  Red blood cells, Median % change from baseline: 2.14%
Patients with MF [2]; phase 2, Week 10
  Hematocrit, Median % change from baseline: -3.57%
  Hemoglobin, Median % change from baseline: 8.2%
  Leukocytes, Median % change from baseline: 7.90%
  Lymphocytes, Median % change from baseline: 52.34%
  Platelets, Median % change from baseline: -3.1%
  Red blood cells, Median % change from baseline: -1.37%
Patients with MF [2]; phase 2, Week 10, n = 19
  Neutrophils, Median % change from baseline: -1.44^b %
Patients with MF [2]; phase 2, Week 12
  Hematocrit, Median % change from baseline: -3.31%
  Hemoglobin, Median % change from baseline: -0.5%
  Leukocytes, Median % change from baseline: -21.83%
  Lymphocytes, Median % change from baseline: 20.88%
  Neutrophils, Median % change from baseline: -31.39%
  Platelets, Median % change from baseline: -7.7%
  Red blood cells, Median % change from baseline: -1.81%
Patients with MF [2]; phase 2, Week 16
  Hematocrit, Median % change from baseline: 3.11%
  Hemoglobin, Median % change from baseline: 8.6%
  Leukocytes, Median % change from baseline: -15.09%
  Lymphocytes, Median % change from baseline: 22.22%
  Neutrophils, Median % change from baseline: -33.04%
  Platelets, Median % change from baseline: -20.1%
  Red blood cells, Median % change from baseline: 6.16%
Patients with MF [2]; phase 2, Week 20
  Hematocrit, Median % change from baseline: -1.30%
  Hemoglobin, Median % change from baseline: 5.8%
  Leukocytes, Median % change from baseline: -25.83%
  Lymphocytes, Median % change from baseline: 37.07%
  Neutrophils, Median % change from baseline: -32.93%
  Platelets, Median % change from baseline: -11.7%
  Red blood cells, Median % change from baseline: -0.30%
Patients with MF [2]; phase 2, Week 24
  Hematocrit, Median % change from baseline: 3.01%
  Hemoglobin, Median % change from baseline: 7.3%
  Leukocytes, Median % change from baseline: -30.34%
  Lymphocytes, Median % change from baseline: 44.14%
  Neutrophils, Median % change from baseline: -43.24%
  Platelets, Median % change from baseline: -23.7%
  Red blood cells, Median % change from baseline: 2.46%
Patients with MF [2]; phase 2, Week 36
  Hematocrit, Median % change from baseline: -2.91%
  Hemoglobin, Median % change from baseline: -0.4%
  Leukocytes, Median % change from baseline: -18.32%
  Lymphocytes, Median % change from baseline: 58.89%
  Neutrophils, Median % change from baseline: -33.96%
  Platelets, Median % change from baseline: -23.4%
  Red blood cells, Median % change from baseline: -3.15%
Patients with MF [2]; phase 2, Week 48
  Hematocrit, Median % change from baseline: -2.39%
  Hemoglobin, Median % change from baseline: 10.1%
  Leukocytes, Median % change from baseline: -5.13%
  Lymphocytes, Median % change from baseline: 61.70%
  Neutrophils, Median % change from baseline: -28.84%
  Platelets, Median % change from baseline: -16.3%
  Red blood cells, Median % change from baseline: -3.87%
Patients with MF [2]; phase 2, Week 60
  Hematocrit, Median % change from baseline: 3.70%
  Hemoglobin, Median % change from baseline: 4.7%
  Leukocytes, Median % change from baseline: -28.21%
  Lymphocytes, Median % change from baseline: 40.43%
  Neutrophils, Median % change from baseline: -40.17%
  Platelets, Median % change from baseline: -31.3%
  Red blood cells, Median % change from baseline: 1.48%
Patients with MF [2]; [3]
  Patients who received RBC transfusions: 51.6%
  Patients who received platelet transfusions: 9.7%
Patients with MF [2]; phase 2, three transfused patients
  Platelet transfusions, median: 3 units
Patients with MF [2]; phase 2, through week 60
  Median neutrophil count, span over visits: 3.83 to 6.00 × 10^9/L
  Median platelet count, span over visits: 89 to 155 × 10^9/L
Patients with MF [2]; phase 2, week 24 (1/20)
  Patients with hemoglobin levels <8 g/L: 5.0%
Patients with MF [2]; phase 2, week 24 (2/20)
  Patients with leukocyte counts >25 × 10^9/L: 10.0%
  Patients with platelet counts <50 × 10^9/L: 10.0%
Patients with MF [2]; phase 2, week 24 (10/20)
  Patients with hemoglobin levels <10 g/L: 50.0%
  Patients with platelet counts <100 × 10^9/L: 50.0%
